Assay results reported in publication PMC9137900, “Engineering Collariella virescens Peroxygenase for Epoxides Production from Vegetable Oil” (Antioxidants, 2022).
Changes are numbered by the printed parent chain.

Columns and labels:
Format in all cases: biochemical
[1] = target: T1, rCviUPO (native, non-mutated recombinant CviUPO) (Achaetomiella virescens, UniProt Z9FBJ6W4Y2, I60A/L63A/F87A/T157A, form not given); test: GC-MS quantification of oxygenated products, […] min reactions; conditions: 24 mM H2O2, 50 mM phosphate pH 7, 20% acetone; substrate-inhibition model
T1 construct: codon-optimized gene in pET23a, expressed in E. coli as active cytosolic enzyme without purification tag; heme-thiolate (EC 1.11.2.1); purified by cation exchange and Superdex 75
T1 sequence (Z9FBJ6W4Y2 1-226 I60A/L63A/F87A/T157A): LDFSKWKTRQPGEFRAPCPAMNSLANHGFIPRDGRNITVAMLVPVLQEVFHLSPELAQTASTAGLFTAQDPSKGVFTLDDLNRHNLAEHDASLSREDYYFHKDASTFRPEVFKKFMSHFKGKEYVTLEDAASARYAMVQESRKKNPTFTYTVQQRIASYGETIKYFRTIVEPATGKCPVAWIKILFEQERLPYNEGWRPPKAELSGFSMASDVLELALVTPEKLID

[2] = target: T2, rCviUPO (native, non-mutated recombinant CviUPO) (Achaetomiella virescens, UniProt Z9FBJ6W4Y2); test: as above; conditions: 24 mM H2O2, 50 mM phosphate pH 7, 20% acetone
T2 construct: codon-optimized gene in pET23a, expressed in E. coli as active cytosolic enzyme without purification tag; heme-thiolate (EC 1.11.2.1); purified by cation exchange and Superdex 75
T2 sequence (Z9FBJ6W4Y2 1-226): T1 sequence (Z9FBJ6W4Y2 1-226 I60A/L63A/F87A/T157A) with A60I, A63L, A87F, A157T

[3] = target: T3, rCviUPO (native, non-mutated recombinant CviUPO) (Achaetomiella virescens, UniProt Z9FBJ6W4Y2, F87A/T157A, form not given); test: as above; conditions: 24 mM H2O2, 50 mM phosphate pH 7, 20% acetone; substrate-inhibition model
T3 construct: codon-optimized gene in pET23a, expressed in E. coli as active cytosolic enzyme without purification tag; heme-thiolate (EC 1.11.2.1); purified by cation exchange and Superdex 75
T3 sequence (Z9FBJ6W4Y2 1-226 F87A/T157A): T1 sequence (Z9FBJ6W4Y2 1-226 I60A/L63A/F87A/T157A) with A60I, A63L

[4] = target: T4, rCviUPO (native, non-mutated recombinant CviUPO) (Achaetomiella virescens, UniProt Z9FBJ6W4Y2, T157A); test: as above; conditions: 24 mM H2O2, 50 mM phosphate pH 7, 20% acetone
T4 construct: codon-optimized gene in pET23a, expressed in E. coli as active cytosolic enzyme without purification tag; heme-thiolate (EC 1.11.2.1); purified by cation exchange and Superdex 75
T4 sequence (Z9FBJ6W4Y2 1-226 T157A): T1 sequence (Z9FBJ6W4Y2 1-226 I60A/L63A/F87A/T157A) with A60I, A63L, A87F

[5] = target: T5, rCviUPO (native, non-mutated recombinant CviUPO) (Achaetomiella virescens, UniProt Z9FBJ6W4Y2, F87A); test: as above; conditions: substrate inhibition constant; 24 mM H2O2, 50 mM phosphate pH 7, 20% acetone
T5 construct: codon-optimized gene in pET23a, expressed in E. coli as active cytosolic enzyme without purification tag; heme-thiolate (EC 1.11.2.1); purified by cation exchange and Superdex 75
T5 sequence (Z9FBJ6W4Y2 1-226 F87A): T1 sequence (Z9FBJ6W4Y2 1-226 I60A/L63A/F87A/T157A) with A60I, A63L, A157T

[6] = target: T5, rCviUPO (native, non-mutated recombinant CviUPO); test: as above; conditions: 24 mM H2O2, 50 mM phosphate pH 7, 20% acetone; substrate-inhibition model
[7] = target: T1, rCviUPO (native, non-mutated recombinant CviUPO); test: as above; conditions: substrate inhibition constant; 24 mM H2O2, 50 mM phosphate pH 7, 20% acetone
[8] = target: T3, rCviUPO (native, non-mutated recombinant CviUPO); test: as above; conditions: substrate inhibition constant; 24 mM H2O2, 50 mM phosphate pH 7, 20% acetone
[9] = target: T3, rCviUPO (native, non-mutated recombinant CviUPO); test: spectrophotometric initial rates, […] nm; conditions: 24 mM H2O2, 0.1 M acetate pH 3 or 5

| SMILES | Km [1] [µM] | Km [2] [µM] | Km [3] [µM] | Km [4] [µM] | ki [5] [µM] | Km [6] [µM] | ki [7] [µM] | ki [8] [µM] | Km [9] [µM] |
| --- | --- | --- | --- | --- | --- | --- | --- | --- | --- |
| CCCCCCCC/C=C\CCCCCCCC(=O)O [C18:1, oleic acid] | 399 ± 94.6 | 58.8 ± 6 | 51.6 ± 5.4 | 89 ± 16.4 | 1120 ± 400 | 278 ± 49 | 1360 ± 710 | 2900 ± 610 | – |
| COc1ccc(CO)cc1OC [veratryl alcohol] | – | – | – | – | – | – | – | – | 15000 |
